Key:
[1] = test system: RAW264.7 macrophage cells; experiment: M2 marker expression in macrophages treated with conditioned medium of MA-treated cancer cells; type: cell-based; conditions: medium harvested from MA-treated (30 µM) cancer cells in hypoxic condition
Method: Total RNA of the cells was isolated using a GeneJET RNA Purification Kit (Thermo Fisher Scientific, Waltham, MA, USA). One microgram of RNA was reverse-transcribed using a RevertAid reverse transcriptase (Thermo Fisher Scientific, Waltham, MA, USA), and single-stranded cDNA was PCR-amplified using AccPower® PCR PreMix (Bioneer, Daejeon, Korea). The qRT-PCR was performed using the QuantiNova™ SYBR®Green PCR Kit (Qiagen, GmbH, Hilden, Germany) and a Qiagen Rotor-Gene® Q Real-Time PCR Detection System according to the manufacturer’s instructions. PCR products were separated using electrophoresis on 1.5% agarose gel containing ethidium bromide in 1 × Tris-acetate buffer and were visualized under UV light.
To investigate the formation of a capillary-like network of human umbilical vein endothelial cells (HUVECs) through the activation of tumor associated macrophages (TAMs) by lactate secreted by cancer cells, a tube formation assay was performed according to a previous study, with several modifications. For the preparation of conditioned media, HT29 colon cancer cells (3.5 × 10^5 cells) suspended in 2 mL of DMEM were seeded on 6-well plates, with or without addition of 30 µM MA, and incubated under normoxic or hypoxic conditions. […]

HepG2 = experiment: Cell viability, MTT assay; type: cell-based; conditions: Homo sapiens, normoxic
Method: (§1) Human colon cancer cells (WiDr, DLD-1, RKO, and HT29) and murine Lewis lung carcinoma (LLC) cells were purchased from the American Type Culture Collection (Manassas, VA, USA). Human breast cancer MCF7 cells, human hepatocellular carcinoma cells (Huh-7, HepG2, and Hep3B), and human lung cancer cells (HCC-95 and NCI-H1793) were provided by the Korean Cell Line Bank (Seoul, Korea). The HCC-95 and NCI-H1793 cells were grown in a Roswell park memorial institute medium (RPMI) 1640 medium (HyClone^TM; GE Healthcare, Chicago, IL, USA). All other cells were grown in Dulbecco’s modified eagle medium (DMEM) supplemented with L-glutamine (200 mg/L), 10% (v/v) heat-inactivated fetal bovine serum (FBS; Sigma-Aldrich, St. Louis, MO, USA), and antibiotics (100 U/mL penicillin and 100 μg/mL streptomycin; Thermo Fisher Scientific, Waltham, MA, USA) in a humidified incubator at 37 °C and with 5% CO2 before the experiments. For induction of hypoxia condition (1% oxygen), the cells were cultured were cultured in the mixture of 94% nitrogen and 5% CO2/air at 37 °C for 24 h in cell culture incubator. Cytotoxicity of MA was evaluated using an MTT assay. Briefly, cells were incubated in 24-well plates with specified concentrations of MA for 24 or 48 h. Then, MTT solution (2.0 mg/mL) was added to each well. After 4 h of incubation at 37 °C and 5% CO2 in a cell culture incubator, the conditioned media were removed, and the amount of formazan crystals formed in living cells was estimated by measuring the absorbance at 540 nm using a microplate reader (Spectramax M2; Molecular Devices, CA, USA). The respective percentages of living cells were compared with a control treatment.

DLD-1 = experiment: Cell viability, MTT assay; type: cell-based; conditions: Homo sapiens, normoxic
Method: as §1

MCF-7 = experiment: Cell viability, MTT assay; type: cell-based; conditions: Homo sapiens, MCF7, normoxic
Method: as §1

LDHA = experiment: LDH activity and LDHA expression in LLC tumor tissue lysates; type: in vivo, mice
Method: A purification of recombinant LDHA was performed as described previously. LDH activity was determined by measuring the decrease of absorbance at 340 nm due to the oxidation of NADH in 20 mM HEPES-K^+, 0.05% bovine serum albumin (BSA), 20 μM NADH, and 2 mM pyruvate (Sigma-Aldrich, St. Louis, MO, USA) at a pH of 7.2 using a spectrofluorometer (Spectramax M2, Molecular Devices, San Jose, CA, USA; excitation 340 nm; emission 460 nm), as described previously. Ten nanograms of recombinant LDHA protein were used in the in vitro LDH activity assay. One microgram of total protein from cell or tissue lysates was used for intracellular or in vivo LDH assays.
LLC and CT26 cells were suspended separately in PBS (5 × 10^5 cells/100 µL PBS) and inoculated in subcutaneously on the back of 7-week-old C57BL/6 mice and BALB/c mice respectively (Orient Bio Inc., Seongnam, Korea; n = 7). One day after the inoculation with tumor cells, mice of the control group (n = 7) were intraperitoneally administrated 100 µL of PBS per day for 18 days. Each of the MA-treated mice were intraperitoneally administrated 0.02, 0.2, or 1 mg MA, respectively, in 100 µL PBS per 20 g body weight, each day for 18 days. […] Length (l) and width (w) of each tumor were measured using a caliper, and the respective volume (V) was calculated according to the formula V = [(l × w^2)/2]. […]

CT26 tumors = experiment: Tumor allograft model, CT26 cells; type: in vivo, BALB/c mice; conditions: 1, 10, or 50 µg/g body weight intraperitoneally daily
Method: LLC and CT26 cells were suspended separately in PBS (5 × 10^5 cells/100 µL PBS) and inoculated in subcutaneously on the back of 7-week-old C57BL/6 mice and BALB/c mice respectively (Orient Bio Inc., Seongnam, Korea; n = 7). One day after the inoculation with tumor cells, mice of the control group (n = 7) were intraperitoneally administrated 100 µL of PBS per day for 18 days. Each of the MA-treated mice were intraperitoneally administrated 0.02, 0.2, or 1 mg MA, respectively, in 100 µL PBS per 20 g body weight, each day for 18 days. All mice were euthanized 19 days after inoculation with the tumor cells, and the tumors were excised and weighed. Length (l) and width (w) of each tumor were measured using a caliper, and the respective volume (V) was calculated according to the formula V = [(l × w^2)/2]. Tumors were immediately removed from euthanized mice and prepared for histological examinations. To test liver and kidney toxicity of MA, at the end of the in vivo allograft experiment blood was collected from each mouse and serum was separated. Biochemical analyses of aspartate aminotransferase (AST), alanine aminotransferase (ALT), creatinine, and blood urea nitrogen (BUN) were performed using a commercial service (Green Cross Co., Yongin, Korea). […]

## C[C@H](Cc1ccc2c(c1)OCO2)[C@@H](C)Cc1ccc2c(c1)OCO2 [MA, bis(3,4-methylenedioxy)-8,8’-lignan]
[1]
  Arg1, CD206, YM1, and VEGF expression in macrophages: reduction of Arg1, CD206, YM1, and VEGF expression
HepG2
  IC50: 156 ± 23.2 µM
DLD-1
  IC50: 423 ± 17.6 µM
MCF-7
  IC50: 217 ± 12.9 µM
LDHA; tumor tissue lysates
  activity of LDH in LLC cell allografts: clearly inhibited
LDHA; western blot of tumor tissue
  expression of LDHA in LLC cell allografts: did not affect
CT26 tumors
  volume, weight, and size of tumors: significantly reduced
